Laboratory results from PubChem BioAssay (NCI).
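Cells were grown in 96-well plates and exposed to each compound for 48 hours at five concentrations; endpoints were interpolated linearly between bracketing concentrations, or set to the highest concentration if not reached. GI50 marks 50% less growth. TGI is the concentration that stops growth completely.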

Legend:
Assay in all cases: growth of human tumour cells (NCI), 48 h
[1] = tested on: U251 CNS
[2] = tested on: LOX IMVI melanoma
[3] = tested on: 786-0 renal
[4] = tested on: MALME-3M melanoma
[5] = tested on: SF-295 CNS
[6] = tested on: SN12C renal
[7] = tested on: SK-MEL-2 melanoma
[8] = tested on: HCT-116 colon
[9] = tested on: HOP-92 NSCLC
[10] = tested on: OVCAR-3 ovarian

Row | Compound | TGI [1] | TGI [2] | TGI [3] | TGI [4] | TGI [5] | TGI [6] | TGI [7] | TGI [8] | TGI [9] | TGI [10] | GI50 [2] | GI50 [3] | GI50 [4] | GI50 [10] | GI50 [6] | GI50 [8] | GI50 [9] | GI50 [1] | GI50 [5] | GI50 [7]
1 | CCCCNC(=S)Nn1c(-c2ccccc2)nc2ccccc2c1=O | > 100 µM | > 100 µM | > 100 µM | > 100 µM | > 100 µM | > 100 µM | > 100 µM | > 100 µM | > 100 µM | – | – | – | – | – | – | – | – | – | – | –
2 | O=c1[nH]nc(-c2ccccc2)c(-c2ccccc2)c1-n1nc(-c2ccccc2)c2ccccc2c1=O | > 100 µM | – | > 100 µM | > 100 µM | > 100 µM | > 100 µM | > 100 µM | > 100 µM | > 100 µM | > 100 µM | – | – | – | – | – | – | – | – | – | –
3 | CC1CN(CCO)CC(C)O1 (centres undefined) | > 100 µM | – | > 100 µM | > 100 µM | > 100 µM | > 100 µM | > 100 µM | > 100 µM | > 100 µM | > 100 µM | – | – | – | – | – | – | – | – | – | –
4 | COC(=O)C1=Cc2cc3c(cc2[C@H](c2ccc4c(c2)OCO4)C1C(=O)OC)OCO3 (some centres undefined) | > 100 µM | > 100 µM | > 100 µM | > 100 µM | > 100 µM | > 100 µM | – | > 100 µM | > 100 µM | > 100 µM | – | – | – | – | – | – | – | – | – | –
5 | CC/C(=C(\c1ccccc1)c1ccc(OCCN(C)C)cc1)c1ccccc1 | – | – | – | – | – | – | – | – | – | – | 1.49 µM | 2.96 µM | 1.91 µM | 2.84 µM | 3.34 µM | 2.25 µM | 1.43 µM | – | – | –
6 | CCN(CC)CCN(C)CC(C)(C)C(=O)/C=C/c1ccccc1 | 22.1 µM | 24 µM | 29.4 µM | 28.5 µM | 29.4 µM | 22.7 µM | 24.2 µM | – | 18.1 µM | 26.2 µM | – | – | – | – | – | – | – | – | – | –
7 | COC1CCC(=C2C(=O)OC(C)(C)OC2=O)N1 (centres undefined) | > 100 µM | > 100 µM | > 100 µM | > 100 µM | > 100 µM | > 100 µM | > 100 µM | > 100 µM | – | – | – | – | – | – | – | – | – | – | – | –
8 | Cc1cc2c(-c3nc4ccccc4[nH]3)c(O)c(O)cc2c(O)c1-c1c(C)cc2c(-c3nc4ccccc4[nH]3)c(O)c(O)cc2c1O | – | – | 1.01 µM | 2.26 µM | 1.58 µM | 8.08 µM | 10.6 µM | 3.29 µM | 1.54 µM | 15.1 µM | – | 0.0801 µM | 0.0321 µM | 0.0411 µM | 0.0272 µM | 0.00866 µM | 0.0232 µM | 0.0174 µM | 0.0227 µM | 0.0993 µM
9 | CC1(CCCC2(C)CCNC2=O)OCCO1 (centres undefined) | > 10 µM | > 10 µM | > 10 µM | > 10 µM | > 10 µM | > 10 µM | > 10 µM | > 10 µM | – | > 10 µM | – | – | – | – | – | – | – | – | – | –
10 | CCOC(=O)c1cnc2ccc(Cl)cc2c1NCCCN(C)C | – | 34.1 µM | > 100 µM | 38.7 µM | > 100 µM | > 100 µM | 62.6 µM | > 100 µM | 98.4 µM | 97.7 µM | 14.1 µM | 43 µM | 19.1 µM | 28.1 µM | 20.5 µM | 10.2 µM | 20.3 µM | – | 22.9 µM | 29.1 µM
11 | COc1ccc([C@H]2c3cc(OC)c(OC)cc3C=C(C=O)C2CO)cc1OC (some centres undefined) | > 100 µM | > 100 µM | > 100 µM | 7.43 µM | 5.85 µM | > 100 µM | – | > 100 µM | > 100 µM | 4.87 µM | 7.44 µM | 7.15 µM | 1.84 µM | 2.09 µM | 5.7 µM | 5.32 µM | > 100 µM | 4.42 µM | 1.79 µM | –
12 | CC(=O)Oc1c(-c2ccccc2)[nH]c2cc([N+](=O)[O-])c(/C(Cl)=C/c3ccccc3)cc12 | 19.8 µM | – | 25.5 µM | – | 22.5 µM | 19.4 µM | 30.8 µM | 17.3 µM | 18.3 µM | 46.8 µM | – | – | – | – | – | – | – | – | – | –
13 | CC(=O)O[C@@H]1C=CC(=O)C2(CC(=O)O[C@@H]2/C=C(\C)CCC=C(C)C)C1 (some centres undefined) | 2.07 µM | 0.743 µM | 2.26 µM | – | 4.07 µM | 2.27 µM | 4.43 µM | 1.71 µM | 3.94 µM | 1.6 µM | 0.229 µM | 0.931 µM | – | 0.435 µM | 0.997 µM | 0.399 µM | 1.59 µM | 0.82 µM | 1.75 µM | 1.51 µM
14 | CC(C)NC(=O)OCc1nnn2c1C(OC(=O)NC(C)C)CC2 (centres undefined) | > 100 µM | – | > 100 µM | > 100 µM | > 100 µM | > 100 µM | > 100 µM | > 100 µM | > 100 µM | > 100 µM | – | – | – | – | – | – | – | – | – | –
15 | CC(=O)NC1(C)CCC(C(C)(C)NC(C)=O)CC1 (centres undefined) | > 100 µM | > 100 µM | > 100 µM | > 100 µM | > 100 µM | > 100 µM | – | > 100 µM | – | > 100 µM | – | – | – | – | – | – | – | – | – | –
16 | FC(F)(F)c1ccc2nc(-c3nc(-c4ccccc4)n4ccccc34)[nH]c2c1 | 4.03 µM | – | 3.56 µM | 9.02 µM | 15.1 µM | 8.56 µM | 40.3 µM | – | 17.4 µM | 16.3 µM | – | 1.92 µM | 2.71 µM | 4.08 µM | 2.59 µM | – | 3.66 µM | 1.98 µM | 3.85 µM | 14.9 µM
17 | C=C1C(=O)OC2C1C(OC(=O)/C(=C/C)COC(C)=O)CC1(CO1)C1C(OC(=O)/C(=C/C)CO)C=C(C)C21 (centres undefined) | 35.1 µM | 11.9 µM | 3.09 µM | 3.32 µM | 20.8 µM | 3.81 µM | 3.63 µM | 2.98 µM | – | 12.2 µM | – | – | – | – | – | – | – | – | – | –
18 | CN1CCC(O)C(CNC23CC4CC(CC(C4)C2)C3)C1 (centres undefined) | > 100 µM | > 100 µM | > 100 µM | > 100 µM | > 100 µM | > 100 µM | > 100 µM | – | > 100 µM | – | – | – | – | – | – | – | – | – | – | –
19 | O=C(c1ccccc1)c1nnn(Cc2cccc(Cl)c2)c1C(=O)c1ccccc1 | > 100 µM | > 100 µM | > 100 µM | > 100 µM | > 100 µM | – | > 100 µM | > 100 µM | > 100 µM | > 100 µM | – | – | – | – | – | – | – | – | – | –
20 | C1=C[C@@H]2c3ccc4cnccc4c3NC[C@@H]2C1 | > 100 µM | – | > 100 µM | > 100 µM | > 100 µM | > 100 µM | – | > 100 µM | > 100 µM | > 100 µM | – | – | – | – | – | – | – | – | – | –
21 | CCCCN(CCCC)C(=Nc1ccccc1)N(CCCC)CCCC | 17.4 µM | 13.6 µM | 15.2 µM | 22.5 µM | 23.1 µM | – | 18.9 µM | 13.8 µM | 7.06 µM | 12.1 µM | – | – | – | – | – | – | – | – | – | –
